Measured values published in ChEMBL document CHEMBL4602617, “Discovery and optimization of heteroaryl piperazines as potent and selective PI3Kδ inhibitors” (Bioorg Med Chem Lett, 2020).

Experiments:
Cytochrome P450 2C9 = Cytochrome P450 2C9 (Homo sapiens, UniProt P11712); test: Inhibition of CYP2C9 (unknown origin); assay type: ADME
Aurora kinase B = Aurora kinase B (Homo sapiens, UniProt Q96GD4); test: Inhibition of recombinant full length His-tagged human AURKB expressed in baculovirus expression system using Ser/Thr-01 peptide as substrate incubated for 60 mins in presence of ATP by Z'-LYTE assay
[1] = biological target: AMP-activated protein kinase (AMPK) alpha-1/beta-1/gamma-1 (Homo sapiens, UniProt P54619+Q13131+Q9Y478); test: Inhibition of recombinant full length GST/His-tagged human AMPK alpha1/beta1/gamma1 expressed in insect cells using Ser/Thr-23 peptide as substrate incubated for 60 mins in presence of ATP by Z'-LYTE assay
[2] = biological target: Beta-adrenergic receptor kinase 1 (Homo sapiens, UniProt P25098); test: Inhibition of recombinant full length human His-tagged GRK2 expressed in baculovirus expression system using serine/threonine-16 peptide as substrate incubated for 60 mins in presence of ATP by Z'-LYTE assay
[3] = biological target: Tyrosine-protein kinase ABL1 (Homo sapiens, UniProt P00519, E255K); test: Inhibition of recombinant full length human His-tagged ABL1 E255K mutant cytoplasmic domain expressed in baculovirus expression system using tyrosine-2 peptide as substrate incubated for 60 mins in presence of ATP by Z'-LYTE assay
[4] = biological target: Phosphatidylinositol 4,5-bisphosphate 3-kinase catalytic subunit gamma isoform (Homo sapiens, UniProt P48736); test: Inhibition of His-tagged recombinant human full length PI3K p110gamma expressed in baculovirus expression system using PIP2:PS lipid as substrate incubated for 1 hr in presence of ATP by Adapta assay
[5] = biological target: Thyrotropin-releasing hormone receptor (Rattus norvegicus) (UniProt Q01717); test: Inhibition of rat TRH receptor at 10 uM relative to control
Sequence of Thyrotropin-releasing hormone receptor (Rattus norvegicus) (Q01717 whole entry): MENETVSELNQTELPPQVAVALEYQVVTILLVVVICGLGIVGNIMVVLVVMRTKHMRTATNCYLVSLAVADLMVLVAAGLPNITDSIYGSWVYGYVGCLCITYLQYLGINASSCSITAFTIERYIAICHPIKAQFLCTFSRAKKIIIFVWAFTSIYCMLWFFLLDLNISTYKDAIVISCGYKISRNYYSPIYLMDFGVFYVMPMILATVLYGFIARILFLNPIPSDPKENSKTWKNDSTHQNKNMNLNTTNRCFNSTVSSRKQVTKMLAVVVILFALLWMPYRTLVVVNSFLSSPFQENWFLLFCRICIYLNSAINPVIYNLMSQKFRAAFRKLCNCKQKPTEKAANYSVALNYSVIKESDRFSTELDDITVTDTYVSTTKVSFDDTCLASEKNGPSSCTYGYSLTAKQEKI

[6] = biological target: Melanocortin receptor 4 (Homo sapiens) (UniProt P32245); test: Displacement of [125I]NDP-alpha-MSH from full length human recombinant MC4 receptor expressed in HEK293 cells at 10 uM measured after 120 mins by radiometric scintillation analysis relative to control; assay type: cell-based
[7] = biological target: Melanocyte-stimulating hormone receptor (Homo sapiens) (UniProt Q01726); test: Displacement of [125I]NDP-alpha-MSH from full length human recombinant MC1 receptor expressed in CHO-K1 cells at 10 uM measured after 120 mins by radiometric scintillation analysis relative to control; assay type: cell-based
[8] = biological target: Glutamate receptor ionotropic, AMPA (Rattus norvegicus) (UniProt P19491+P19492+P19493+P19490); test: Displacement of [3H]AMPA from glutamate AMPA receptor in Wistar rat cerebral cortical membranes at 10 uM incubated for 90 mins by radiometric scintillation analysis relative to control
[9] = biological target: D(1A) dopamine receptor (Homo sapiens) (UniProt P21728); test: Displacement of [3H]SCH-23390 from recombinant full length human recombinant dopamine D1 receptor expressed in CHO cells at 10 uM measured after 120 mins by radiometric scintillation analysis relative to control; assay type: cell-based
Ephrin type-A receptor 5 = Ephrin type-A receptor 5 (Homo sapiens, UniProt P54756); test: Inhibition of recombinant human GST-tagged EPHA5 cytoplasmic domain expressed in baculovirus expression system using tyrosine-01 peptide as substrate incubated for 60 mins in presence of ATP by Z'-Lyte assay
[10] = biological target: Receptor tyrosine-protein kinase erbB-4 (Homo sapiens, UniProt Q15303); test: Inhibition of recombinant human N-terminal GST-tagged ERBB4 catalytic domain (708 to 993 residues) expressed in baculovirus expression system using tyrosine-1 peptide as substrate incubated for 60 mins in presence of ATP by Z'-LYTE assay
Sequence of Receptor tyrosine-protein kinase erbB-4 (Q15303 whole entry, the tested form may be a part): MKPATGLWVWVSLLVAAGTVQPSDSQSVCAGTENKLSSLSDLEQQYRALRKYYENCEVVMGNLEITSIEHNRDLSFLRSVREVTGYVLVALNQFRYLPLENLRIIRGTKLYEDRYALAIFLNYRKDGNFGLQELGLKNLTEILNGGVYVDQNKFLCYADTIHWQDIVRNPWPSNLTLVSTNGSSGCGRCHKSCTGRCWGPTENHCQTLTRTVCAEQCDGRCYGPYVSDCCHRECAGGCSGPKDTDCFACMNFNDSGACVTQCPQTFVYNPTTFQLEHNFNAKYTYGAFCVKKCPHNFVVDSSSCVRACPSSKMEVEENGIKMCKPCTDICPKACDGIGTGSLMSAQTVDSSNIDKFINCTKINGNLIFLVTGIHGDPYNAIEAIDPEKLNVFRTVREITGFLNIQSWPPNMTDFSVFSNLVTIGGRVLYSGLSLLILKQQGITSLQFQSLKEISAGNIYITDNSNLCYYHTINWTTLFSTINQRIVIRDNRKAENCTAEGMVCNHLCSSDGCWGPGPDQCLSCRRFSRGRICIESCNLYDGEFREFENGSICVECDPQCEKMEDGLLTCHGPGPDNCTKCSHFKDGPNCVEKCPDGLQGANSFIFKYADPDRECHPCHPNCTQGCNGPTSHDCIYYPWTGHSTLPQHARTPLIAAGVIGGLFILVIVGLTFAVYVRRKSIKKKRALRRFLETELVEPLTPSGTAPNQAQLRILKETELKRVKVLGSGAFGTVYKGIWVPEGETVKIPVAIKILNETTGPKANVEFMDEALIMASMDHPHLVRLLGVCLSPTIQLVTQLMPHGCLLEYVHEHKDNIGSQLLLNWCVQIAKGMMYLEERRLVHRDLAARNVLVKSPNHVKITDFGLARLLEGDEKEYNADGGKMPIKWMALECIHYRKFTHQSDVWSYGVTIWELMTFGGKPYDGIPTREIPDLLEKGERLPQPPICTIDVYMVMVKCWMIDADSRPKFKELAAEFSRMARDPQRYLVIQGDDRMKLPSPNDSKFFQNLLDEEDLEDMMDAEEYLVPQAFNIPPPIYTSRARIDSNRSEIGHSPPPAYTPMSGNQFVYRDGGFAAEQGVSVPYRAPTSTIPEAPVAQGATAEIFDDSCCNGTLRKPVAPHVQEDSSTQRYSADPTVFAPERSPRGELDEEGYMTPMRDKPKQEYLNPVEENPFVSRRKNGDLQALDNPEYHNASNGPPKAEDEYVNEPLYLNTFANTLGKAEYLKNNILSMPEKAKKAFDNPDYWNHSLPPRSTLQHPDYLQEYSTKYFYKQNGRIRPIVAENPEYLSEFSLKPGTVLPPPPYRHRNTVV

[11] = biological target: Fibroblast growth factor receptor 3 (Homo sapiens, UniProt P22607); test: Inhibition of recombinant His-tagged human FGFR3 (399 to 806 residues) cytoplasmic domain expressed in baculovirus expression system using Tyr 04 peptide as substrate after 1 hr in presence of ATP by Z'-LYTE assay
[12] = biological target: Vascular endothelial growth factor receptor 1 (Homo sapiens, UniProt P17948); test: Inhibition of recombinant human GST-tagged FLT1 catalytic domain (781 to 1338 residues) expressed in baculovirus expression system using tyrosine-4 peptide as substrate incubated for 60 mins in presence of ATP by Z'-LYTE assay
[13] = biological target: Inhibitor of nuclear factor kappa-B kinase subunit beta (Homo sapiens, UniProt O14920); test: Inhibition of recombinant human full-length GST-tagged IKBKB expressed in baculovirus expression system using FRET-labeled Ser/Thr 05 peptide as substrate measured after 1 hr in presence of ATP by Z'-lyte assay
[14] = biological target: Leukocyte tyrosine kinase receptor (Homo sapiens, UniProt P29376); test: Inhibition of recombinant human GST-tagged LTK (450 to 864 residues) cytoplasmic domain expressed in baculovirus expression system using tyrosine-6 peptide as substrate incubated for 60 mins in presence of ATP by Z'-LYTE assay
[15] = biological target: Mitogen-activated protein kinase 11 (Homo sapiens, UniProt Q15759); test: Inhibition of recombinant full length human His-tagged p38beta expressed in baculovirus expression system using serine/threonine-15 peptide as substrate incubated for 60 mins in presence of ATP by Z'-LYTE assay
[16] = biological target: Serine/threonine-protein kinase MARK2 (Homo sapiens, UniProt Q7KZI7); test: Inhibition of recombinant full length human GST-tagged MARK2 expressed in baculovirus expression system using serine/threonine-21 peptide as substrate incubated for 60 mins in presence of ATP by Z'-LYTE assay
[17] = biological target: Serine/threonine-protein kinase 26 (Homo sapiens, UniProt Q9P289); test: Inhibition of recombinant full length human GST-tagged MST4 expressed in baculovirus expression system using serine/threonine-7 peptide as substrate incubated for 60 mins in presence of ATP by Z'-LYTE assay
[18] = biological target: BDNF/NT-3 growth factors receptor (Homo sapiens, UniProt Q16620); test: Inhibition of recombinant human His-tagged NTRK2 cytoplasmic domain (526 to 838 residues) expressed in baculovirus expression system using tyrosine-01 peptide as substrate incubated for 60 mins in presence of ATP by Z'-LYTE assay
[19] = biological target: Phosphatidylinositol 4-phosphate 3-kinase C2 domain-containing subunit alpha (Homo sapiens, UniProt O00443); test: Inhibition of recombinant full length human N-terminal GST-tagged PIK3C2alpha catalytic domain expressed in baculovirus expression system using PI lipid as substrate incubated for 60 mins in presence of ATP by Adapta assay
Sequence of Phosphatidylinositol 4-phosphate 3-kinase C2 domain-containing subunit alpha (O00443 whole entry, looked up, the tested form may be a part): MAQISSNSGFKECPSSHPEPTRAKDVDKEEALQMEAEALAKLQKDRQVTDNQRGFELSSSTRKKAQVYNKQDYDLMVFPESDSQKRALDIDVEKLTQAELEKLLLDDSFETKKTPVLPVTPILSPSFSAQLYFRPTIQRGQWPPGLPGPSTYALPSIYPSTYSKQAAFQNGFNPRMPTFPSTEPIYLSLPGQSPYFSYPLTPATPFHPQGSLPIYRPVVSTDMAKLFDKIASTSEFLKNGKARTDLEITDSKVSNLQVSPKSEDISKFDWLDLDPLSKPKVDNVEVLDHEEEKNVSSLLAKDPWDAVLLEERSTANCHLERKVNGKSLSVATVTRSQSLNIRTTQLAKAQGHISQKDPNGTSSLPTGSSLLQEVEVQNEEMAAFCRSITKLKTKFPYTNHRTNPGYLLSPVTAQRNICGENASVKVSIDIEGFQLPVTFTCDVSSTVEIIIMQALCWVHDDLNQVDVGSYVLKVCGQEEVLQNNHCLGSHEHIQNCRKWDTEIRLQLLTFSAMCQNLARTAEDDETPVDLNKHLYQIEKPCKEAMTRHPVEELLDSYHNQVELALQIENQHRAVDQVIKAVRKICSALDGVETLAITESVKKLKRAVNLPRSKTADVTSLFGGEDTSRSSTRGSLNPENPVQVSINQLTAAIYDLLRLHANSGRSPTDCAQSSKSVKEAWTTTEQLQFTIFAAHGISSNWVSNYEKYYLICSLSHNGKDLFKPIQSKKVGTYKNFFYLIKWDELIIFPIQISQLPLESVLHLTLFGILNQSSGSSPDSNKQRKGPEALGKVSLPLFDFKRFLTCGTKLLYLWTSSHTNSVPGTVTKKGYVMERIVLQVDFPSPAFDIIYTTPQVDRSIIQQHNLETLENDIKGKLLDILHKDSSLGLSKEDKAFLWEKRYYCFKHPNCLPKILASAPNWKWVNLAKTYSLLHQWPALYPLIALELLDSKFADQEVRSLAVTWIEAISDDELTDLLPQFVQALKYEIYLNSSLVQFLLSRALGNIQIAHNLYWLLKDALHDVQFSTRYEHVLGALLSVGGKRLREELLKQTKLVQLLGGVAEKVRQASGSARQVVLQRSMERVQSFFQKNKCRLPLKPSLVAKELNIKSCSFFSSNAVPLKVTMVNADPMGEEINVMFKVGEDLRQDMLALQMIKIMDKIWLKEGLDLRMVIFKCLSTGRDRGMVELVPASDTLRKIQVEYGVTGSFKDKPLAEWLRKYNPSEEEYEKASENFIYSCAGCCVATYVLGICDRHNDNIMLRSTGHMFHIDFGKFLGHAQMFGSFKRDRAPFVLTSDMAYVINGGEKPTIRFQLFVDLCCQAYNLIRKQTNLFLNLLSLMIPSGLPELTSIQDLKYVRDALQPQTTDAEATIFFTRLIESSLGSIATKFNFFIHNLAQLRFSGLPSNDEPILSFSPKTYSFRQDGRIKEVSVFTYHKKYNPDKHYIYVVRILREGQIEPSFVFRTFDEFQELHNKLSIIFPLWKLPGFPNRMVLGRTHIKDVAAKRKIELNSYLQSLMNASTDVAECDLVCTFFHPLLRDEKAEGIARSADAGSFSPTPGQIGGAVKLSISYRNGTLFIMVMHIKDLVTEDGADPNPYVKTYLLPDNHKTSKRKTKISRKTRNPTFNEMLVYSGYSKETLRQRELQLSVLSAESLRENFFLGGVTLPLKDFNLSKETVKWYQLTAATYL

[20] = biological target: Protein kinase C epsilon type (Homo sapiens, UniProt Q02156); test: Inhibition of recombinant full length human GST-tagged PRKCE expressed in insect expression system using serine/threonine-7 peptide as substrate incubated for 60 mins in presence of ATP by Z'-LYTE assay
Sequence of Protein kinase C epsilon type (Q02156 whole entry): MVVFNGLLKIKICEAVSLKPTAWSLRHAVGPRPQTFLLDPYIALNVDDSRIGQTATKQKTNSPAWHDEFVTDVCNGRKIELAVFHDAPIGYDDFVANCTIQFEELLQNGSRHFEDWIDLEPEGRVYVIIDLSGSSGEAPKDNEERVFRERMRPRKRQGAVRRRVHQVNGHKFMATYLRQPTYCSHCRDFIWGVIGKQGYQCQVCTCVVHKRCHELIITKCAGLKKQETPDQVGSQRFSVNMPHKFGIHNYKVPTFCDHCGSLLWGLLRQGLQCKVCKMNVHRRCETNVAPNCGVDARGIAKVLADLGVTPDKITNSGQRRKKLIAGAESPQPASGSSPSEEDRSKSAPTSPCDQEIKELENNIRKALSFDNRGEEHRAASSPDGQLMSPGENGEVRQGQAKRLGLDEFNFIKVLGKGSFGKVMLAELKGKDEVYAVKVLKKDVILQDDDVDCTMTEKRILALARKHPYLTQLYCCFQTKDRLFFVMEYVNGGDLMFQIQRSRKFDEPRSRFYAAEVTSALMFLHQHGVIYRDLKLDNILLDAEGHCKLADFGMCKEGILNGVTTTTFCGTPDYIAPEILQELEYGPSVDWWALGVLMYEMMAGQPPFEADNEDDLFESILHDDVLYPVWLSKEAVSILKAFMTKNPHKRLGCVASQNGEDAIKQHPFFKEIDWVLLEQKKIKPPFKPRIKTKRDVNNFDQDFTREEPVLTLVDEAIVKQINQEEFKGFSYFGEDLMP

[21] = biological target: Serine/threonine-protein kinase TBK1 (Homo sapiens, UniProt Q9UHD2); test: Inhibition of recombinant full length human GST-tagged TBK1 expressed in insect expression system using serine/threonine-5 peptide as substrate incubated for 60 mins in presence of ATP by Z'-LYTE assay
Sequence of Serine/threonine-protein kinase TBK1 (Q9UHD2 whole entry): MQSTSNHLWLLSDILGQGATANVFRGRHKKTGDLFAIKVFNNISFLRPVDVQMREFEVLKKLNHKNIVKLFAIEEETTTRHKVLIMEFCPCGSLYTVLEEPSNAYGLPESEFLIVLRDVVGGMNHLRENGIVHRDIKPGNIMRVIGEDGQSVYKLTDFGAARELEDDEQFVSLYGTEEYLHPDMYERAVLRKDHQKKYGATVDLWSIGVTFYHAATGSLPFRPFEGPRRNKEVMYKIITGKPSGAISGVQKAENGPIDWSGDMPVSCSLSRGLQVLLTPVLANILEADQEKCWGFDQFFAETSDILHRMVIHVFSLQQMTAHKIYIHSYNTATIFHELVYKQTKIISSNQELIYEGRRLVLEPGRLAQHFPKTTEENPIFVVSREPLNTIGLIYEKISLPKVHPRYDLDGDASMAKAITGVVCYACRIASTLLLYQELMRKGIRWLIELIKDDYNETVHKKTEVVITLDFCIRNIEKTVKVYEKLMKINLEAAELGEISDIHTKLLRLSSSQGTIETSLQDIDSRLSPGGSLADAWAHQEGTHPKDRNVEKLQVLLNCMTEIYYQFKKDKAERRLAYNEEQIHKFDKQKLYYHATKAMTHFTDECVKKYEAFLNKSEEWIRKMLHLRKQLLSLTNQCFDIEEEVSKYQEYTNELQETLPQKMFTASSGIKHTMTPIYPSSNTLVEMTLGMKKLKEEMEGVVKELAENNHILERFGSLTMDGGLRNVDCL

Compound: C[C@@H]1C[C@H]1C(=O)N1CCN(c2cnc(C#N)c(-c3cnn(C)c3)n2)C[C@H]1C
- IC50 (Cytochrome P450 2C9): > 50 µM
- IC50 (Aurora kinase B): > 100 µM
- IC50 [1]: > 100 µM
- IC50 [2]: > 100 µM
- IC50 [3]: > 100 µM
- IC50 [4]: 0.945 µM
- inhibition [5]: 0%
- inhibition [6]: 5%
- inhibition [7]: 3%
- inhibition [8]: 7%
- inhibition [9]: 2%
- IC50 (Ephrin type-A receptor 5): > 100 µM
- IC50 [10]: > 100 µM
- IC50 [11]: > 100 µM
- IC50 [12]: > 100 µM
- IC50 [13]: > 100 µM
- IC50 [14]: > 100 µM
- IC50 [15]: > 100 µM
- IC50 [16]: > 100 µM
- IC50 [17]: > 100 µM
- IC50 [18]: > 100 µM
- IC50 [19]: > 100 µM
- IC50 [20]: > 100 µM
- IC50 [21]: > 100 µM
